Results on two molecules are retold here after patent US20240270786A1, “STEROID COMPOUNDS” (Epirium Bio Inc., priority 2022, published 2024).

The subject of assay [1] is mitochondrial ATP synthase. Briefly: ATP hydrolysis (acidification, Seahorse XF96) in fresh heart mitochondria. It is filed as biochemical, mouse. The conditions noted are these: fresh heart mitochondria (FIG. 1, FIG. 2). An excerpt:
(§1) To assess whether the fraction of synthetic and reverse hydrolytic activities of mitochondrial ATP synthase can be measured in the same preparation, a protocol was developed to monitor changes in oxygen consumption and proton release in response to changes in mitochondrial ATP synthase activity. The proton released and the concomitant changes in the pH can be monitored using the ECAR (extracellular acidification) channel in the Agilent Seahorse XF analyzer using isolated mitochondria, to ensure that the changes in pH cannot be attributed to glycolysis or other contributors to ECAR.
Mice were anesthetized with isoflurane followed by a cervical dislocation, and the heart was immediately removed and placed in ice cold relaxation buffer (5 mM sodium pyrophosphate, 100 mM KCl, 5 mM EGTA, 5 mM HEPES; pH 7.4). The heart was squeezed with tweezers to remove blood, minced with scissors, and then placed in a glass-glass Dounce homogenizer with 3 mL of HES homogenization buffer (250 mM sucrose, 5 mM HEPES, 1 mM EDTA; pH to 7.2, adjusted with KOH). The heart tissue was homogenized first with the loose pestle and followed by the tight pestle. The homogenized tissue was placed in a pre-chilled 15 mL conical tube and centrifuged at 900×g (4° C.) for 10 minutes (min). The supernatant was removed, placed in a new tube and centrifuged again at 900×g for 10 min. The supernatant was then transferred to 2 mL microcentrifuge tubes and centrifuged at 10,000×g (4° C.) for 10 min. The mitochondrial pellets were re-suspended in ice cold HES buffer and mitochondrial protein was measured with a BCA assay (Pierce). The concentrated mitochondrial pellet was stored on ice. […]
ATP hydrolysis capacity or state 4 acidification was measured using Seahorse XF96 as described in Divakaruni et al. (2018) Anal Biochem 552:60-65 and Acin-Perez et al. (2021) Life 11(9):949, in MAS (70 mM Sucrose, 220 mM Mannitol, 5 mM KH2PO4, 5 mM MgCl2, 1 mM EGTA, 2 mM HEPES; pH 7.2). […]

Assay [2] relates to mitochondrial ATP synthase. Briefly: ATP synthesis (oxygen consumption, Seahorse XF96) in fresh heart mitochondria. It is filed as biochemical, mouse. The settings on record: Complex I or Complex II substrates (FIG. 1, FIG. 2).
From the text: as §1
Mice were anesthetized with isoflurane followed by a cervical dislocation, and the heart was immediately removed and placed in ice cold relaxation buffer (5 mM sodium pyrophosphate, 100 mM KCl, 5 mM EGTA, 5 mM HEPES; pH 7.4). […] The mitochondrial pellets were re-suspended in ice cold HES buffer and mitochondrial protein was measured with a BCA assay (Pierce). […]
Oxygen consumption was measured in isolated fresh intact mitochondria from mouse heart, as oxygen consumption is linked to maximal ATP synthesis and proton release when mitochondria are respiring either in the presence of substrates and ADP (ATP synthesizing mitochondria or state 3) or in the presence of substrates but not ADP (state 4). […]

The structures appear in SMILES notation.

In the case of `CNC(=O)[C@H]1CCC2C3CC=C4N(C)C(=O)CC[C@]4(C)C3[C@@H](O)C[C@@]21C` (stereo partly drawn) [Compound 40, (4aR,5S,6aS)-5-hydroxy-N,1,4a,6a-tetramethyl-2-oxo-2,3,4,4a,4b,5,6,6a,7,8,9,9a,9b,10-tetradecahydro-1H-indeno[5,4-f] quinoline-7-carboxamide], the ATP hydrolysis result in assay [1] is “only mild changes in hydrolysis”. `CN1C(=O)CC[C@@]2(C)C1=CCC1C2[C@@H](O)C[C@@]2(C)C1CC[C@@H]2NC(=O)C1CC1` (stereo partly drawn) [Compound 26, N-((4aR,5S,6aS,7S)-5-hydroxy-1,4a,6a-trimethyl-2-oxo-2,3,4,4a,4b,5,6,6a,7,8,9,9a,9b,10-tetradecahydro-1H-indeno[5,4-f]quinolin-7-yl)cyclopropanecarboxamide]: the ATP hydrolysis entry in assay [1] is “only mild changes in hydrolysis”. In assay [2], the ATP synthesis result is listed as “decreased ATP synthesis at the highest concentration”.
